According to publication PMC9609070 (ACS Omega, 2022):
Read-outs that look alike come from different tables or passages of the source.

What was measured:
[1] = Apparent thermodynamic functions of dissolution; format: physicochemical; details: Thm=303.0 K
[2] = Apparent thermodynamic functions of mixing; format: physicochemical; details: Thm=303.0 K
[3] = Hildebrand solubility parameter of meloxicam; format: physicochemical; details: expected from the solubility maximum in neat NMP; T=298.15 K
[4] = neat water, x1=0.000, cited from earlier work
[5] = neat water, x1=0.000; Thm=303.0 K; cited from earlier work
[6] = neat water, x1=0.000, cited from earlier work; remark: listed apart in the source
[7] = cited from earlier work

Cc1cnc(NC(=O)C2=C(O)c3ccccc3S(=O)(=O)N2C)s1 [Meloxicam, 4-hydroxy-2-methyl-N-(5-methyl-2-thiazolyl)-2H-1,2-benzothiazine-3-carboxamide-1,1-dioxide]
TΔsolnS° ([1]; NMP+water, x1=0.100): 0.52 kJ·mol^–1
ΔsolnG° (apparent Gibbs energy of dissolution) ([1]; NMP+water, x1=0.100): 27.40 kJ·mol^–1
ΔsolnH° (apparent enthalpy of dissolution) ([1]; NMP+water, x1=0.100): 27.92 kJ·mol^–1
ΔsolnS° (apparent entropy of dissolution) ([1]; NMP+water, x1=0.100): 1.71 J·mol^–1·K^–1
TΔsolnS° ([1]; NMP+water, x1=0.200): 2.55 kJ·mol^–1
ΔsolnG° (apparent Gibbs energy of dissolution) ([1]; NMP+water, x1=0.200): 22.34 kJ·mol^–1
ΔsolnH° (apparent enthalpy of dissolution) ([1]; NMP+water, x1=0.200): 24.89 kJ·mol^–1
ΔsolnS° (apparent entropy of dissolution) ([1]; NMP+water, x1=0.200): 8.41 J·mol^–1·K^–1
TΔsolnS° ([1]; NMP+water, x1=0.300): 3.08 kJ·mol^–1
ΔsolnG° (apparent Gibbs energy of dissolution) ([1]; NMP+water, x1=0.300): 18.38 kJ·mol^–1
ΔsolnH° (apparent enthalpy of dissolution) ([1]; NMP+water, x1=0.300): 21.46 kJ·mol^–1
ΔsolnS° (apparent entropy of dissolution) ([1]; NMP+water, x1=0.300): 10.18 J·mol^–1·K^–1
TΔsolnS° ([1]; NMP+water, x1=0.400): 2.09 kJ·mol^–1
ΔsolnG° (apparent Gibbs energy of dissolution) ([1]; NMP+water, x1=0.400): 15.31 kJ·mol^–1
ΔsolnH° (apparent enthalpy of dissolution) ([1]; NMP+water, x1=0.400): 17.40 kJ·mol^–1
ΔsolnS° (apparent entropy of dissolution) ([1]; NMP+water, x1=0.400): 6.89 J·mol^–1·K^–1
TΔsolnS° ([1]; NMP+water, x1=0.500): 1.77 kJ·mol^–1
ΔsolnG° (apparent Gibbs energy of dissolution) ([1]; NMP+water, x1=0.500): 13.00 kJ·mol^–1
ΔsolnH° (apparent enthalpy of dissolution) ([1]; NMP+water, x1=0.500): 14.78 kJ·mol^–1
ΔsolnS° (apparent entropy of dissolution) ([1]; NMP+water, x1=0.500): 5.85 J·mol^–1·K^–1
TΔsolnS° ([1]; NMP+water, x1=0.600): 6.45 kJ·mol^–1
ΔsolnG° (apparent Gibbs energy of dissolution) ([1]; NMP+water, x1=0.600): 11.42 kJ·mol^–1
ΔsolnH° (apparent enthalpy of dissolution) ([1]; NMP+water, x1=0.600): 17.87 kJ·mol^–1
ΔsolnS° (apparent entropy of dissolution) ([1]; NMP+water, x1=0.600): 21.28 J·mol^–1·K^–1
TΔsolnS° ([1]; NMP+water, x1=0.700): 15.75 kJ·mol^–1
ΔsolnG° (apparent Gibbs energy of dissolution) ([1]; NMP+water, x1=0.700): 10.45 kJ·mol^–1
ΔsolnH° (apparent enthalpy of dissolution) ([1]; NMP+water, x1=0.700): 26.20 kJ·mol^–1
ΔsolnS° (apparent entropy of dissolution) ([1]; NMP+water, x1=0.700): 51.98 J·mol^–1·K^–1
TΔsolnS° ([1]; NMP+water, x1=0.800): 14.58 kJ·mol^–1
ΔsolnG° (apparent Gibbs energy of dissolution) ([1]; NMP+water, x1=0.800): 9.52 kJ·mol^–1
ΔsolnH° (apparent enthalpy of dissolution) ([1]; NMP+water, x1=0.800): 24.10 kJ·mol^–1
ΔsolnS° (apparent entropy of dissolution) ([1]; NMP+water, x1=0.800): 48.13 J·mol^–1·K^–1
TΔsolnS° ([1]; NMP+water, x1=0.900): 10.89 kJ·mol^–1
ΔsolnG° (apparent Gibbs energy of dissolution) ([1]; NMP+water, x1=0.900): 8.60 kJ·mol^–1
ΔsolnH° (apparent enthalpy of dissolution) ([1]; NMP+water, x1=0.900): 19.49 kJ·mol^–1
ΔsolnS° (apparent entropy of dissolution) ([1]; NMP+water, x1=0.900): 35.93 J·mol^–1·K^–1
TΔsolnS° ([1]; neat NMP, x1=1.000): 13.06 kJ·mol^–1
ΔsolnG° (apparent Gibbs energy of dissolution) ([1]; neat NMP, x1=1.000): 7.99 kJ·mol^–1
ΔsolnH° (apparent enthalpy of dissolution) ([1]; neat NMP, x1=1.000): 21.05 kJ·mol^–1
ΔsolnS° (apparent entropy of dissolution) ([1]; neat NMP, x1=1.000): 43.10 J·mol^–1·K^–1
ΔmixG° (apparent Gibbs energy of mixing) ([2]; NMP+water, x1=0.100): 13.24 kJ·mol^–1
ΔmixH° (apparent enthalpy of mixing) ([2]; NMP+water, x1=0.100): 3.14 kJ·mol^–1
ΔmixS° (apparent entropy of mixing) ([2]; NMP+water, x1=0.100): –33.32 J·mol^–1·K^–1
ΔmixG° (apparent Gibbs energy of mixing) ([2]; NMP+water, x1=0.200): 8.18 kJ·mol^–1
ΔmixH° (apparent enthalpy of mixing) ([2]; NMP+water, x1=0.200): 0.11 kJ·mol^–1
ΔmixS° (apparent entropy of mixing) ([2]; NMP+water, x1=0.200): –26.62 J·mol^–1·K^–1
ΔmixG° (apparent Gibbs energy of mixing) ([2]; NMP+water, x1=0.300): 4.22 kJ·mol^–1
ΔmixH° (apparent enthalpy of mixing) ([2]; NMP+water, x1=0.300): –3.31 kJ·mol^–1
ΔmixS° (apparent entropy of mixing) ([2]; NMP+water, x1=0.300): –24.85 J·mol^–1·K^–1
ΔmixG° (apparent Gibbs energy of mixing) ([2]; NMP+water, x1=0.400): 1.15 kJ·mol^–1
ΔmixH° (apparent enthalpy of mixing) ([2]; NMP+water, x1=0.400): –7.38 kJ·mol^–1
ΔmixS° (apparent entropy of mixing) ([2]; NMP+water, x1=0.400): –28.14 J·mol^–1·K^–1
ΔmixG° (apparent Gibbs energy of mixing) ([2]; NMP+water, x1=0.500): –1.16 kJ·mol^–1
ΔmixH° (apparent enthalpy of mixing) ([2]; NMP+water, x1=0.500): –10.00 kJ·mol^–1
ΔmixS° (apparent entropy of mixing) ([2]; NMP+water, x1=0.500): –29.18 J·mol^–1·K^–1
ΔmixG° (apparent Gibbs energy of mixing) ([2]; NMP+water, x1=0.600): –2.74 kJ·mol^–1
ΔmixH° (apparent enthalpy of mixing) ([2]; NMP+water, x1=0.600): –6.91 kJ·mol^–1
ΔmixS° (apparent entropy of mixing) ([2]; NMP+water, x1=0.600): –13.74 J·mol^–1·K^–1
ΔmixG° (apparent Gibbs energy of mixing) ([2]; NMP+water, x1=0.700): –3.72 kJ·mol^–1
ΔmixH° (apparent enthalpy of mixing) ([2]; NMP+water, x1=0.700): 1.42 kJ·mol^–1
ΔmixS° (apparent entropy of mixing) ([2]; NMP+water, x1=0.700): 16.95 J·mol^–1·K^–1
ΔmixG° (apparent Gibbs energy of mixing) ([2]; NMP+water, x1=0.800): –4.65 kJ·mol^–1
ΔmixH° (apparent enthalpy of mixing) ([2]; NMP+water, x1=0.800): –0.68 kJ·mol^–1
ΔmixS° (apparent entropy of mixing) ([2]; NMP+water, x1=0.800): 13.10 J·mol^–1·K^–1
ΔmixG° (apparent Gibbs energy of mixing) ([2]; NMP+water, x1=0.900): –5.56 kJ·mol^–1
ΔmixH° (apparent enthalpy of mixing) ([2]; NMP+water, x1=0.900): –5.29 kJ·mol^–1
ΔmixS° (apparent entropy of mixing) ([2]; NMP+water, x1=0.900): 0.90 J·mol^–1·K^–1
ΔmixG° (apparent Gibbs energy of mixing) ([2]; neat NMP, x1=1.000): –6.17 kJ·mol^–1
ΔmixH° (apparent enthalpy of mixing) ([2]; neat NMP, x1=1.000): –3.73 kJ·mol^–1
ΔmixS° (apparent entropy of mixing) ([2]; neat NMP, x1=1.000): 8.07 J·mol^–1·K^–1
ΔmixG° (apparent Gibbs energy of mixing) ([2]; neat water, x1=0.000): 20.19 kJ·mol^–1
ΔmixH° (apparent enthalpy of mixing) ([2]; neat water, x1=0.000): –17.09 kJ·mol^–1
ΔmixS° (apparent entropy of mixing) ([2]; neat water, x1=0.000): –123.02 J·mol^–1·K^–1
Hildebrand solubility parameter δ3, solubility-based [3]: lower than 23.6 MPa^1/2
Activity coefficient (γ3) ([4]; T=293.15 K): 2396
Activity coefficient (γ3) ([4]; T=298.15 K): 2708
Activity coefficient (γ3) ([4]; T=303.15 K): 3055
Activity coefficient (γ3) ([4]; T=308.15 K): 3376
Activity coefficient (γ3) ([4]; T=313.15 K): 3755
TΔsolnS° [5]: –26.66 kJ·mol^–1
ΔsolnG° (apparent Gibbs energy of dissolution) [5]: 34.35 kJ·mol^–1
ΔsolnH° (apparent enthalpy of dissolution) [5]: 7.69 kJ·mol^–1
ΔsolnS° (apparent entropy of dissolution) [5]: –87.99 J·mol^–1·K^–1
Experimental molar solubility (C) ([6]; T=293.15 K): 6.027 × 10^–5 mol·dm^–3
Experimental mole fraction solubility (x3) ([6]; T=293.15 K): 1.088 × 10^–6 mole fraction
Experimental molar solubility (C) ([6]; T=298.15 K): 6.290 × 10^–5 mol·dm^–3
Experimental mole fraction solubility (x3) ([6]; T=298.15 K): 1.137 × 10^–6 mole fraction
Experimental molar solubility (C) ([6]; T=303.15 K): 6.557 × 10^–5 mol·dm^–3
Experimental mole fraction solubility (x3) ([6]; T=303.15 K): 1.187 × 10^–6 mole fraction
Experimental molar solubility (C) ([6]; T=308.15 K): 6.962 × 10^–5 mol·dm^–3
Experimental mole fraction solubility (x3) ([6]; T=308.15 K): 1.262 × 10^–6 mole fraction
Experimental mole fraction solubility (x3) ([6]; T=313.15 K): 1.329 × 10^–6 mole fraction
Solubility-increasing effect ([7]; Carbitol as cosolvent): 1144 times
Solubility-increasing effect ([7]; N,N-dimethylformamide (DMF) as cosolvent): 11,233 times
Solubility-increasing effect ([7]; N-methylformamide (NMF) as cosolvent): 1399 times
Solubility-increasing effect ([7]; dimethyl sulfoxide (DMSO) as cosolvent): 6956 times
